Reference: patent US7049486B2, “Method of inducing gene expression in plant and the plant treated thereby” (priority 2000, dated 2006)

Tests used:
[1] = molecular target: T1, ArpA (Streptomyces griseus, UniProt Q9ZN78); conditions: A factor/ArpA; read-out: dissociation constant (Kd value); cited from earlier work
T1 sequence (Q9ZN78 1-276): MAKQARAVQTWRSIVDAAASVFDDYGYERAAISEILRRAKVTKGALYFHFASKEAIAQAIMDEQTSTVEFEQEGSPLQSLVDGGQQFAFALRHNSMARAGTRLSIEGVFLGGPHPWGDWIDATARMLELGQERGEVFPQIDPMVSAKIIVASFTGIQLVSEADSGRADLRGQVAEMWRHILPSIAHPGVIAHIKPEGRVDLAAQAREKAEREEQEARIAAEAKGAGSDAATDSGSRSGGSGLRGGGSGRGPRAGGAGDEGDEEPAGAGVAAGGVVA

[2] = tested on: GUS reporter gene placed under the control of the operator BARE-3 (repressor BarA); assay: GUS reporter induction at low VB concentrations in transiently transformed cultured tobacco cells (Example 7); assay type: cell-based
Excerpt: Cultured tobacco cells were provided with the characters of the repressor BarA (receptor protein for VB) and operator BARE-3 (one of the target sequences for BarA) constituting a gene expression inducing system with the actinomycete Streptomyces virginiae autogenous regulatory factor VB as the inducer by gene transfer and whether the expression of the GUS reporter gene placed under the control of the operator BARE-3 was induced was examined by administering the inducer VB in low concentrations to thus-obtained transiently transformed cultured tobacco cells.
Like in Example 6, the GUS reporter gene placed under the control of BARE-3 (Example 2, plasmid pCaMV35SD-gus) was further transferred into a cultured tobacco cell transformant clone (Example 3, No. 21 shown in FIG. 1) seemingly indicating relatively high level accumulation of the BarA protein among the clones obtained by transferring the barA gene (Example 1, binary vector pBICaMV35S-barA) into cultured tobacco BY2 cells, for transient transformation of that clone. […]

[3] = tested on: plants; assay: Toxicity to plants; conditions: concentration of 10 μM
Excerpt: The actinomycete autogenous regulatory factors have no toxicity to plants.

Row | Compound | Kd [1] [nM] | concentration at which gene expression under the control of BARE-3 is induced to a satisfactory extent [2] [nM] | toxicity to plants [3]
1 | CC(C)CCCCC(=O)C1C(=O)OC[C@H]1CO (stereo partly drawn) [A factor] | 0.7 |  | 
2 | virginiae butanolide [VB] |  | 100 | no toxicity
